We go through eleven compounds from US11261190B2, “Dihydropyrimidine compounds and uses thereof in medicine” (SUNSHINE LAKE PHARMA CO., LTD., priority 2017, dated 2022).

One data set can be described thus: PK test on SD rats. It is filed as in vivo. The note with it: for AUC(0-inf) / AUC(0-t) / Tmax: male, rat, plasma. The method, then:
The PK test method of the compound in vivo of SD rats (purchased from Hunan slack Jing Da laboratory animal Co., Ltd, weight: […] male, ages of 2-3 months, 3 per oral group, 3 per intravenous injection group):
The Rats were administered intragastrically with the test compound at doses of 2.5 mg/kg or 5 mg/kg or administered intravenously with the test compound at doses of 1 mg/kg.
Blood samples were taken at 0.083, 0.25, 0.5, 1, 2, 5, 7 and 24 hours from vein after the administration, and collected in anticoagulation tube with EDTA-K2. The test compounds were extracted from plasma samples by liquid-liquid extraction. Then quantitative analysis was performed on a triple-quadrupole tandem mass spectrometer using multiple reaction monitoring (MRM). Pharmacokinetic parameters were calculated using a noncompartmental method by WinNonLin 6.3 software.

Data set [1] concerns HBV. In words: Anti HBV activity in vitro, viral DNA from HepG2.2.15 cells quantified by qPCR. It is filed as cell-based. The note with it: qPCR of viral DNA in supernatant, read-out: EC50 against HBV replication. In short, it runs like this: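 HepG2.2.15 cells, grown 3 days to confluence, treated with 8-point 4-fold dilutions (top final 4 μM, 0.5% DMSO). Secreted HBV DNA in supernatant quantified by SYBR qPCR against plasmid standard curve; EC50 from four-parameter nonlinear regression of concentration vs viral copy number.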
(In general: In qPCR the cycle at which signal appears reflects the starting amount.)

Data set [2] is described as follows: Cytotoxicity in HepG2.2.15 cells (CellTiter Glo). It is filed as cell-based. The note with it: human, highest concentration 150 μM. In short, it runs like this:
(§1)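 Serially diluted compound added to HepG2.2.15 cells (3000/well), top final concentration 150 μM; cultured 4 days at 37° C. Viability read by CellTiter Glo luminescence, cytotoxicity % relative to DMSO control wells, CC50 from four-parameter nonlinear regression.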
Background: In ATP-based viability assays light output follows the ATP content of the culture.

The test system of another data set is HepG2.2.15 cells. In words: Cytotoxicity in HepG2.2.15 cells (CellTiter Glo). Type of data set: cell-based. Conditions: 4 days, highest concentration 150 μM. In short, it runs like this: as §1
Data set [3] has as its system HBV. Conditions: Science, 2003, 299, 893-896; cited from earlier work.

Structures are written as SMILES. Where two headings read alike, the source gives them in different places.

In the case of `COC(=O)C1=C(CN2CCN3C(=O)N(c4ccc(CCC(=O)O)cc4)C[C@@H]3C2)NC(c2nccs2)=N[C@H]1c1ccc(F)cc1Cl` [Example 13, 3-(4-((S)-7-(((R)-6-(2-chloro-4-fluorophenyl)-5-(methoxycarbonyl)-2-(thiazol-2-yl)-3,6-dihydropyrimidin-4-yl)methyl)-3-oxohexahydroimidazo[1,5-a]pyrazin-2(3H)-yl)phenyl)propionic Acid], in the data set “PK test on SD rats” (iv, 1 mg/kg), the AUC(0-inf) (in general, the area under the concentration-time curve extrapolated to infinity) turned out to be 1320 ng·h/mL; the AUC(0-t) (usually exposure summed from dosing to a finite time, without extrapolation to infinity) is 1320 ng·h/mL; the Tmax (as a rule, the time at which the peak concentration occurs) is 4.98 min. Moreover, in “PK test on SD rats” (po, 5 mg/kg), the AUC(0-inf) worked out at 3080 ng·h/mL, the AUC(0-t) is 3050 ng·h/mL, the Tmax came to 30 min and the F came to 31.2%. In addition, the EC50 (usually the concentration that produces a half-maximal response) in the data set on HBV [1] (Hepatitis B virus) was 0.004 µM. The CC50 (commonly the concentration that lowers cell viability or growth by half) at 4 days in data set [2] is over 150 µM.
Take `COC(=O)C1=C(CN2CCN3C(=O)N(c4ccc(CC(=O)O)cc4)C[C@@H]3C2)NC(c2nccs2)=N[C@H]1c1ccc(F)cc1Cl` [Example 14, 2-(4-((S)-7-(((R)-6-(2-chloro-4-fluorophenyl)-5-(methoxycarbonyl)-2-(thiazol-2-yl)-3,6-dihydropyrimidin-4-yl)methyl)-3-oxohexahydroimidazo[1,5-a]pyrazin-2(3H)-yl)phenyl)acetic Acid]: in “PK test on SD rats” (iv, 1 mg/kg), the area under the curve AUC(0-inf) amounted to 684 ng·h/mL, the AUC(0-t) was 680 ng·h/mL and the Tmax is 4.98 min. Moreover, in the data set “PK test on SD rats” (po, 5 mg/kg), the AUC(0-inf) was determined as 2250 ng·h/mL, the AUC(0-t) was 2250 ng·h/mL, the Tmax was found to be 30 min and the F came to 44%. Also, the EC50 with HBV [1] (Hepatitis B virus) was found to be 0.007 µM. In data set [2], this compound gave a CC50 at 4 days of over 150 µM.
With `COC(=O)C1=C(CN2CCN3C(=O)N(c4ccc(CC(C)(C)C(=O)O)cc4)C[C@@H]3C2)NC(c2nccs2)=N[C@H]1c1ccc(F)cc1Cl` [Example 17, 3-(4-((S)-7-(((R)-6-(2-chloro-4-fluorophenyl)-5-(methoxycarbonyl)-2-(thiazol-2-yl)-3,6-dihydropyrimidin-4-yl)methyl)-3-oxohexahydroimidazo[1,5-a]pyrazin-2(3H)-yl)phenyl)-2,2-dimethylpropionic Acid], in the data set “PK test on SD rats” (iv, 1 mg/kg), the AUC(0-inf) was found to be 979 ng·h/mL, the exposure AUC(0-t) was determined as 977 ng·h/mL and the Tmax was determined as 4.98 min. Further, in “PK test on SD rats” (po, 5 mg/kg), the AUC(0-inf) came out at 5580 ng·h/mL, the AUC(0-t) was found to be 4710 ng·h/mL, the Tmax was found to be 60 min and the F came to 114.1%. Further, the EC50 in the data set with HBV [1] (Hepatitis B virus) amounted to 0.004 µM. Besides, the CC50 at 4 days in data set [2] is over 150 µM.
Regarding `COC(=O)C1=C(CN2CCN3C(=O)N(c4ccc(C(C)CC(=O)O)cc4)C[C@@H]3C2)NC(c2nccs2)=N[C@H]1c1ccc(F)cc1Cl` (stereo partly drawn) [Example 19, 3-(4-((S)-7-(((R)-6-(2-chloro-4-fluorophenyl)-5-(methoxycarbonyl)-2-(thiazol-2-yl)-3,6-dihydropyrimidin-4-yl)methyl)-3-oxohexahydroimidazo[1,5-a]pyrazin-2(3H)-yl)phenyl) butanoic Acid], in “PK test on SD rats” (iv, 1 mg/kg), the AUC(0-inf) was found to be 5520 ng·h/mL, the AUC(0-t) was 5520 ng·h/mL and the Tmax was 4.98 min. In “PK test on SD rats” (po, 5 mg/kg), the AUC(0-inf) turned out to be 20300 ng·h/mL, the AUC(0-t) came out at 20300 ng·h/mL, the Tmax is 30 min and the F came out at 73.4%. Also, the EC50 in the data set with HBV [1] (Hepatitis B virus) came out at 0.003 µM. Further, the CC50 at 4 days in data set [2] was over 150 µM.
As for `CCOC(=O)C1=C(CN2CCN3C(=O)N(c4nc(CCC(=O)O)cs4)C[C@@H]3C2)NC(c2nccs2)=N[C@H]1c1ccc(F)cc1Br` [Example 30], the EC50 in the data set with HBV [1] was found to be 0.012 µM. In addition, the CC50 in the data set on HepG2.2.15 cells turned out to be 133 µM.
As for `COC[C@@H]1[C@H]2CN(c3ccc(CCC(=O)O)cc3)C(=O)N2CCN1CC1=C(C(=O)OC)[C@H](c2ccc(F)cc2Cl)N=C(c2nccs2)N1` [Example 51B], the EC50 in the data set on HBV [1] (Hepatitis B virus) turned out to be 0.009 µM. Also, the CC50 at 4 days in data set [2] was over 150 µM.
The matching figures for `COC(=O)C1=C(CN2CCN3C(=O)N(c4nc(/C=C/C(=O)O)cs4)C[C@@H]3C2)NC(c2nccs2)=N[C@H]1c1ccc(F)cc1Cl` [Example 52, (E)-3-(2-((S)-7-(((R)-6-(2-chloro-4-fluorophenyl)-5-(methoxycarbonyl)-2-(thiazol-2-yl)-3,6-dihydropyrimidin-4-yl)methyl)-3-oxohexahydroimidazo[1,5-a]pyrazin-2(3H)-yl)-thiazol-4-yl)acrylic Acid]: 0.013 µM and over 150 µM.
For the compound `COC(=O)C1=C(CN2CCN3C(=O)N(c4ccc(/C=C(\C)C(=O)O)cc4)C[C@@H]3C2)NC(c2nccs2)=N[C@H]1c1ccc(F)cc1Cl` [Example 53, (E)-3-(4-((S)-7-(((R)-6-(2-chloro-4-fluorophenyl)-5-(methoxycarbonyl)-2-(thiazol-2-yl)-3,6-dihydropyrimidin-4-yl)methyl)-3-oxohexahydroimidazo[1,5-a]pyrazin-2(3H)-yl)phenyl)-2-methylacrylic Acid], the EC50 with HBV [1] (Hepatitis B virus) came to 0.014 µM. In data set [2], this compound came in with a CC50 at 4 days of over 150 µM.
The matching figures for `COC(=O)C1=C(CN2CCN3C(=O)N(c4ccc(/C(C)=C/C(=O)O)cc4)C[C@@H]3C2)NC(c2nccs2)=N[C@H]1c1ccc(F)cc1Cl` [Example 54, (E)-3-(4-((S)-7-(((R)-6-(2-chloro-4-fluorophenyl)-5-(methoxycarbonyl)-2-(thiazol-2-yl)-3,6-dihydropyrimidin-4-yl)methyl)-3-oxohexahydroimidazo[1,5-a]pyrazin-2(3H)-yl)phenyl)-2-butenoic Acid]: 0.011 µM and over 150 µM.
For `COC(=O)C1=C(CN2CCN3C(=O)N(c4ccc(CCC(=O)O)cc4)C[C@@H]3[C@H]2CO)NC(c2nccs2)=N[C@H]1c1ccc(F)cc1Cl` [Example 59B] the same measures were 0.015 µM and over 150 µM.
Consider `Nc1ccn([C@@H]2CS[C@H](CO)O2)c(=O)n1` [lamivudine], for which the concentration for half-maximal inhibition (IC50) (as a rule, the point on the concentration scale where inhibition reaches its midpoint) in the data set on HBV [3] is 0.3 µM.
